# According to patent publication US12006302B2, “Tau PET imaging ligands” (Janssen Pharmaceutica NV, priority 2016, dated 2024):
# Tests used:
# [1] = microPET imaging, Wistar rats; assay type: in vivo, Wistar rat; conditions: for SUV value at 60 min p.i. (brain wash-out) / initial brain uptake, high intensity SUV value in the brain: baseline scan, whole brain; for initial brain uptake, high intensity SUV value in the brain: IV about 50 MBq; for effect of pre-treatment / chase with cold compound on brain uptake: pre-treatment 10 mg/kg SC 60 min before, chase 1 mg/kg IV 30 min after tracer
# Protocol: Three separate studies are shown: a baseline scan (only tracer), a pre-treatment experiment (cold Co. No. 1 or T807, 10 mg/kg injected subcutaneously 60 min prior to radiotracer injection), and a chase study (cold Co. No. 1 or T807, 1 mg/kg injected intravenously 30 min after radiotracer injection).
# A dynamic 120-min μPET scan with [^18F]Co. No. 1 or [^18F]T807 was acquired on a Focus 220 μPET scanner (Concorde Microsystems, Knoxville, TN, U.S.A.) on three female Wistar rats simultaneously. The rats were kept under gas anaesthesia during the whole procedure (2.5% isoflurane in O2 at 1 L/min flow rate). Scans were acquired in list mode and acquisition data were Fourier rebinned in 24 time frames (4×15 s, 4×60 s, 5×180 s, 8×300 s, 3×600 s). Data, which were 3D maximum a posteriori (3D-MAP) reconstructed, were manually aligned with a rat brain ^18F-FDG template in Paxinos coordinates using an affine transformation, to allow predefined volumes of interest (VOIs) analysis (Casteels C., et al. J. Nucl. Med. 2006, 47, 1858-1866). Time-activity curves (TACs) of the whole brain were generated using VOIs with PMOD software (v 3.2, PMOD Technologies, Zürich, Switzerland). Radioactivity concentration in the brain was expressed as standardized uptake value (SUV, calculated as (radioactivity in Bq in brain/mL)/(total injected dose (Bq)/body weight in g)) as a function of time after tracer injection. Scans were started immediately after IV injection of about 50 MBq radiotracer (n=3/tracer). For pre-treatment and displacement studies, cold reference compound Co. No. 1 or T807 was dissolved in a mixture of 5% DMSO, 5% Tween 80 and 40% (2-hydroxypropyl)-β-cyclodextrin, filtered through a 0.22-μm membrane filter (Millex-GV. Millipore) prior to injection. Pre-treatment (n=1) was done by subcutaneous (SC) injection of 10 mg/kg of Co. No. 1 or T807, 60 min prior to radiotracer injection. Displacement (n=1) was performed by IV injection of 1 mg/kg Co. No. 1 or T807 30 min after radiotracer injection. μPET images were compared to a baseline scan (n=1), acquired in a non-treated rat.
# [2] = microPET imaging, rhesus monkey; assay type: in vivo, rhesus monkey (Macaca mulatta); conditions: baseline scan; for initial brain uptake, SUV value: total brain, IV 185 MBq
# Protocol: A dynamic 120-min μPET scan with [^18F]Co. No. 1 or [^18F]T807 was performed with a Focus 220 μPET scanner on a rhesus monkey (6 y-old male Macaca mulatta, 7.6 kg), that was sedated with ketamine (Ketalar®) and xylazine (Rompun®) via intramuscular (IM) injection. During scanning the monkey received repeatedly an additional dose of ketamine/xylazine via IV injection. O2 saturation in blood, breathing frequency and heartbeat frequency were monitored during the entire experiment. The head of the animal was placed central in the field of view of the μPET scanner. Scans were acquired in list mode and Fourier rebinned in 24 time frames (4×15 s, 4×60 s, 5×180 s, 8×300 s, 3×600 s). Data were reconstructed using a 3D maximum a posteriori (3D-MAP) iterative reconstruction. TACs of the whole brain were generated using VOIs with PMOD software. Radioactivity concentration in the brain is expressed as SUV as a function of time after tracer injection. Scans were started immediately after IV injection of 185 MBq of [^18F]Co. No. 1 or [^18F]T807 via the vena saphena of the right leg. For the pre-treatment study, cold reference compound Co. No. 1 was dissolved in a mixture of 10% DMSO and 40% (2-hydroxypropyl)-o-cyclodextrin, filtered through a 0.22-μm membrane filter (Millex-GV, Millipore) prior to injection. Pre-treatment (n=1) was done by IV co-injection of 1 mg/kg of cold Co. No. 1 and radiotracer solution. μPET images were compared to a baseline scan (n=1), acquired in the non-treated monkey.
# [3] = test system: NFTs / cortical tau-rich regions; test: digital autoradiography with [18F]Co. No. 1 on human AD visual cortex slices, with blocking; assay type: binding; conditions: 7.4 kBq/500 μL per slice; human AD slices
# Protocol: Adjacent slices were immunostained for tau pathology (B, AT8) and for amyloid beta pathology (C, 4G8).
# a) Air-dried frozen, 10-μm-thick slices of the visual cortex of an AD-patient (with Braak stage V-VI) were incubated for 60 min with [^18F]Co. No. 1 (7.4 kBq/500 μL per slice) and subsequently washed with mixtures of PBS and ethanol as described elsewhere (Xia C. F., Arteaga J., Chen G., et al. Alzheimer's Dement. 2013, 1-11). To assess specificity of binding, slices were incubated with tracer in the presence of 1 μM of authentic T808 or Co. No. 1. After drying, slices were exposed to a phosphor storage screen (super-resolution screen, Perkin Elmer). Screens were read in a Cyclone Plus system (Perkin Elmer, Waltham, MA, U.S.A.) and analyzed using Optiquant software. Results are expressed as digital light units per square mm (DLU/mm^2). Adjacent AD slices were immunostained with anti-tau (AT8) and anti-Aβ antibodies (4G8), to correlate with [^18F]Co. No. 1 binding.
# [4] = test system: tau pathology in human AD slices; test: [18F]Co. No. 1 binding to human AD tissue in the presence of MAO binders; conditions: 0.2 mCi/mL tracer; for effect on [18F]Co. No. 1 binding pattern in human AD slices: compound 10 μM
# Protocol: c) Binding of [^18F] Co. No. 1 to human AD tissue was assessed in the presence of reported MAO binders. […] This binding pattern was maintained when the sample was incubated with 10 μM of clorgiline, a strong irreversible MAO binder with moderate selectivity for the A-subtype (FIG. 7B), or 10 μM selegiline (=deprenyl), a strong irreversible MAO-B binder (FIG. 7C). The binding of [^18F] […] Adjacent AD slices were immunostained with anti-tau (AT8) and anti-Aβ (4G8) antibodies to correlate with [^18F]Co. No. 1 binding (FIG. 8).
# MAO = test: in vitro binding of tritiated tracers to MAO-rich human tissue (striatum); conditions: cold compound 10 μM; 10 nM [3H]-THK-5351
# Protocol: The tracer was tested at 10 nM and higher concentrations were not investigated in this study.
# In comparison, the tau tracer [^3H]-THK-5351 and the Aβ tracer [^3H]-AV-45 were used as THK-5351 is known to also bind MAO.
structure (smiles),measurement,setting,value
"[18F]c1ccc(-c2ccc3c(c2)[nH]c2ccncc23)cn1 [[^18F]T807, reference compound]",SUV value at 60 min p.i. (brain wash-out),[1],0.4
same,"initial brain uptake, high intensity SUV value in the brain",[1],~1.8
same,effect of pre-treatment / chase with cold compound on brain uptake,[1],Lower brain uptake during the baseline scan
same,brain wash-out,[2],slower
same,"initial brain uptake, SUV value",[2],~1.3
Cc1cnc(Nc2ccc3cnccc3c2)cc1[18F] [[^18F]Co. No. 1],SUV value at 60 min p.i. (brain wash-out),[1],0.2
same,"initial brain uptake, high intensity SUV value in the brain",[1],~2.0
same,effect of pre-treatment / chase with cold compound on brain uptake,[1],No self-blocking or self-chase effect
same,tracer binding in digital autoradiography,[3],high and selective binding to cortical tau-rich regions
same,brain wash-out,[2],rapid wash-out
same,distribution over brain regions,[2],homogeneous distribution
same,"initial brain uptake, SUV value",[2],~5.4
same,tracer binding to tau pathology in human AD slices,[4],strong binding
"C#CCN(C)[C@H](C)Cc1ccccc1 [selegiline, reference compound]",effect on [18F]Co. No. 1 binding pattern in human AD slices,[4],maintained
Cl.FCCCNc1ccc(Nc2ccc3cnccc3c2)nc1,melting point,,285.1 °C
FCCNc1ccc(Nc2ccc3cnccc3c2)nc1 [Co. No. 5],melting point,,191.4 °C
FCCOc1ccc(Nc2ccc3cnccc3c2)nc1 [Co. No. 9],melting point,,104.6 °C
FCCc1ccc(Nc2ccc3cnccc3c2)nc1 [Co. No. 3],melting point,,208.5 °C
FCOc1ccc(Nc2ccc3cnccc3c2)nc1 [Co. No. 4],melting point,,173.1 °C
"C#CCN(C)CCCOc1ccc(Cl)cc1Cl [clorgiline, reference compound]",effect on [18F]Co. No. 1 binding pattern in human AD slices,[4],maintained
Cl.FCCCOc1ccc(Nc2ccc3cnccc3c2)nc1,melting point,,249.3 °C
Cc1ccc(Nc2ccc3cnccc3c2)nc1F [Co. No. 2],melting point,,203.3 °C
CN(CCF)c1ccc(Nc2ccc3cnccc3c2)nc1 [Co. No. 6],melting point,,146.3 °C
"CNc1ccc(-c2ccc3cc(OC[C@H](O)CF)ccc3n2)cn1 [THK-5351, reference compound]",blocking of [3H]-THK-5351 binding to MAO-rich human tissue,MAO,self-blocked
